Reference: patent publication US4364958A, “1-Substituted-3-cycloalkyl-sulfonyl-pyrrolidine-2,5-dione derivatives and fungicidal compositions thereof” (Chinoin Gyogyszer es Vegyeszeti Termekek Gyara Rt., priority 1979, dated 1982)
≈ marks a conversion by molar mass, not a printed value. Like-named read-outs stand apart in the source and are kept apart here.

Experiments:
[1] = test system: Aspergillus niger CBS.12648; assay: minimal inhibitory concentration in Sabouraud medium; type: cell-based; details: for MIC: Aspergillus niger
Description: Aspergillus niger CBS.12648
(§1) As a medium Saboroud medium was employed.

[2] = test system: Fusarium oxysporum DSM.10975; assay: as above; type: cell-based
Description: Fusarium oxysporum DSM.10975
as §1

[3] = test system: Saccharomyces cerevisiae OKI.1282; assay: as above; type: cell-based; details: Saccharomyces cerevisiae, OKI.1282, 48 h, 48 hours
Description: Saccharomyces cerevisiae OKI.1282
as §1

Candida valida = assay: minimal inhibitory concentration, proliferating fungi; type: cell-based; details: Pichia membranifaciens
Description: as §1

Botrytis cinerea = assay: activity against phytopathogenic fungi; type: cell-based
[4] = test system: Penicillium chrysogenium CBS.19646; assay: minimal inhibitory concentration in Sabouraud medium; type: cell-based; details: Penicillium
Description: Penicillium chrysogenium CBS.19646
as §1

Verticillium dahlise = assay: activity against phytopathogenic fungi; type: cell-based
Verticillium albo-atrum = assay: activity against phytopathogenic fungi; type: cell-based
[5] = test system: Penicillium chrysogenium CCM.F-362; assay: minimal inhibitory concentration in Sabouraud medium; type: cell-based; details: Penicillium
Description: Penicillium chrysogenium CCM.F-362
as §1

[6] = test system: Aspergillus fumigatus CBS.11326; assay: as above; type: cell-based; details: Aspergillus fumigatus
Description: Aspergillus fumigatus CBS.11326
as §1

Taphrina deformans = assay: activity against phytopathogenic fungi; type: cell-based
[7] = test system: Sporotrichum schenkii CBS.34035; assay: minimal inhibitory concentration in Sabouraud medium; type: cell-based; details: Sporotrichum
Description: Sporotrichum schenkii CBS.34035
as §1

[8] = test system: Fusarium culmorum DSM.11425; assay: as above; type: cell-based
Description: Fusarium culmorum DSM.11425
as §1

[9] = test system: Penicillium digitatum CBS.31948; assay: as above; type: cell-based; details: Penicillium digitatum
Description: Penicillium digitatum CBS.31948
as §1

[10] = test system: Microsporum gypseum ver. vinosum CBS.10064; assay: as above; type: cell-based; details: Nannizzia gypsea
Description: Microsporum gypseum ver. vinosum CBS.10064
as §1

[11] = test system: Aspergillus niger CCM.F-330; assay: as above; type: cell-based; details: Aspergillus niger
Description: Aspergillus niger CCM.F-330
as §1

[12] = test system: Candida tropicalis CBS.433; assay: as above; type: cell-based; details: Candida tropicalis
Description: Candida tropicalis CBS.433 "3"
as §1

[13] = test system: Fusarium monoliforme DSM.11778; assay: as above; type: cell-based; details: Fusarium
Description: Fusarium monoliforme DSM.11778
as §1

[14] = test system: Aspergillus flavus CBS.24765; assay: as above; type: cell-based; details: Aspergillus flavus
Description: Aspergillus flavus CBS.24765
as §1

Phytophtora infestans = type: cell-based
Sclerotinia sclerotiorum = assay: activity against phytopathogenic fungi; type: cell-based
[15] = test system: Epidermophyton floccosum OKI/IV.; assay: minimal inhibitory concentration in Sabouraud medium; type: cell-based; details: for MIC: Epidermophyton floccosum, read-out: minimal inhibitory concentration
Description: Epidermophyton floccosum OKI/IV.
as §1

Candida krusei 79/K47 = assay: as above; details: Pichia kudriavzevii, read-out: minimal inhibitory concentration
Description: (§2) Sabouraud medium was inoculated with 10^5 /ml. germ number and the propagation of the fungi was examined after 24, 48, 72, 144 and 288 hours incubation time and the minimal inhibitory concentrations were determined.

Ascochyta pisi = assay: activity against phytopathogenic fungi; type: cell-based
Venturia = assay: activity against phytopathogenic fungi; type: cell-based
[16] = test system: Cryptococcus neoform. 78/K16; assay: minimal inhibitory concentration in Sabouraud medium; details: read-out: minimal inhibitory concentration
Description: as §2

Cercospora beticola = assay: activity against phytopathogenic fungi; type: cell-based
[17] = test system: Trichophyton mentagrophytes CBS.50148; assay: minimal inhibitory concentration in Sabouraud medium; type: cell-based; details: Trichophyton mentagrophytes
Description: Trichophyton mentagrophytes CBS.50148
as §1

Candida albicans CBS.562 = assay: as above; type: cell-based; details: 48 hours
Description: Candida albicans CBS.562 "2"
as §1

[18] = test system: Trichophyton rubrum CBS.30338; assay: as above; type: cell-based; details: for MIC: Trichophyton rubrum
Description: Trichophyton rubrum CBS.30338
as §1

[19] = test system: Fusarium graminocorum DSM.11802; assay: as above; type: cell-based
Description: Fusarium graminocorum DSM.11802
as §1

[20] = test system: Penicillium digitatum CCM.F-382; assay: as above; type: cell-based; details: Penicillium digitatum
Description: Penicillium digitatum CCM.F-382
as §1

Cc1ccc(N2C(=O)CC(S(=O)(=O)C3CCCCC3)C2=O)cc1 (stereo not shown) showed a minimal inhibitory concentration ([1]; 144 hours) of 50 µg/mL (≈ 149 µM), an MIC ([1]; CBS.12648, 72 h, 72 hours) of 25 µg/mL (≈ 74.5 µM) and an MIC ([1]; CBS.12648, 144 h, 144 hours) of 75 µg/mL (≈ 224 µM). For the same compound, the MIC ([1]; CBS.12648, 288 h, 288 hours) was 75 µg/mL (≈ 224 µM), the MIC ([2]; 72 hours) was 150 µg/mL (≈ 447 µM) and the MIC ([2]; 144 hours) was 200 µg/mL (≈ 596 µM). For the same compound, the MIC ([2]; 288 hours) was 200 µg/mL (≈ 596 µM), the MIC [3] was 25 µg/mL (≈ 74.5 µM) and the MIC (Candida valida; 24 hours) was 5 µg/mL (≈ 14.9 µM). For the same compound, the MIC (Candida valida; 48 hours) was 10 µg/mL (≈ 29.8 µM), the “activity against Botrytis cinerea” value (Botrytis cinerea) was “active” and the MIC ([4]; CBS.19646, 72 h, 72 hours) was 50 µg/mL (≈ 149 µM). For the same compound, the MIC ([4]; CBS.19646, 144 h, 144 hours) was 75 µg/mL (≈ 224 µM), the MIC ([4]; CBS.19646, 288 h, 288 hours) was 75 µg/mL (≈ 224 µM) and the “activity against Verticillium dahlise” value (Verticillium dahlise) was “active”. The “activity against Verticillium albo-atrum” value (Verticillium albo-atrum) was “active”, the MIC ([5]; CCM.F362, 72 h, 72 hours) was 75 µg/mL (≈ 224 µM) and the MIC ([5]; CCM.F362, 144 h, 144 hours) was 150 µg/mL (≈ 447 µM). For the same compound, the MIC ([5]; CCM.F362, 288 h, 288 hours) was 150 µg/mL (≈ 447 µM), the MIC ([6]; CBS.11326, 72 h, 72 hours) was 50 µg/mL (≈ 149 µM) and the MIC ([6]; CBS.11326, 144 h, 144 hours) was 150 µg/mL (≈ 447 µM). For the same compound, the MIC ([6]; CBS.11326, 288 h, 288 hours) was 150 µg/mL (≈ 447 µM), the “activity against Taphrina deformans” value (Taphrina deformans) was “active” and the MIC ([7]; CBS.34035, 72 h, 72 hours) was 5 µg/mL (≈ 14.9 µM). The MIC ([7]; CBS.34035, 288 h, 288 hours) was 25 µg/mL (≈ 74.5 µM), the MIC ([8]; 72 hours) was 75 µg/mL (≈ 224 µM) and the MIC ([8]; 144 hours) was 150 µg/mL (≈ 447 µM). It also gave an MIC ([8]; 288 hours) of 150 µg/mL (≈ 447 µM), an MIC ([9]; CBS.31948, 72 h, 72 hours) of 10 µg/mL (≈ 29.8 µM) and an MIC ([9]; CBS.31948, 144 h, 144 hours) of 10 µg/mL (≈ 29.8 µM). The MIC ([9]; CBS.31948, 288 h, 288 hours) was 10 µg/mL (≈ 29.8 µM), the MIC ([10]; 72 h) was 10 µg/mL (≈ 29.8 µM) and the MIC ([10]; 144 h) was 25 µg/mL (≈ 74.5 µM). It also gave an MIC ([10]; 288 h) of 25 µg/mL (≈ 74.5 µM), an MIC ([11]; CCM.F330, 72 h, 72 hours) of 100 µg/mL (≈ 298 µM) and an MIC ([11]; CCM.F330, 144 h, 144 hours) of 150 µg/mL (≈ 447 µM). The MIC ([11]; CCM.F330, 288 h, 288 hours) was 250 µg/mL (≈ 745 µM), the MIC ([12]; CBS.433, 24 h, 24 hours) was 100 µg/mL (≈ 298 µM) and the MIC ([12]; CBS.433, 48 h, 48 hours) was 150 µg/mL (≈ 447 µM). For the same compound, the MIC ([13]; DSM.11778, 72 h, 72 hours) was 100 µg/mL (≈ 298 µM), the MIC ([13]; DSM.11778, 144 h, 144 hours) was 150 µg/mL (≈ 447 µM) and the MIC ([13]; DSM.11778, 288 h, 288 hours) was 150 µg/mL (≈ 447 µM). The MIC ([14]; CBS.24765, 72 h, 72 hours) was 150 µg/mL (≈ 447 µM), the MIC ([14]; CBS.24765, 144 h, 144 hours) was 250 µg/mL (≈ 745 µM) and the “activity against Phytophtora infestans” value (Phytophtora infestans) was “active”. The “activity against Sclerotinia sclerotiorum” value (Sclerotinia sclerotiorum) was “active”, the minimal inhibitory concentration ([15]; 72 hours) was 2.5 µg/mL (≈ 7.45 µM) and the MIC ([15]; 72 h) was 5 µg/mL (≈ 14.9 µM). It also gave an MIC ([15]; 144 h) of 5 µg/mL (≈ 14.9 µM), an MIC ([15]; 288 h) of 5 µg/mL (≈ 14.9 µM) and an MIC (Candida krusei 79/K47; 79/K47, 24 h) of 2.5 µg/mL (≈ 7.45 µM). For the same compound, the MIC (Candida krusei 79/K47; 79/K47, 48 h) was 10 µg/mL (≈ 29.8 µM), the “activity against Ascochyta pisi” value (Ascochyta pisi) was “active” and the “activity against Venturia” value (Venturia) was “active”. For the same compound, the MIC ([16]; 24 h) was 1 µg/mL (≈ 2.98 µM), the MIC ([16]; 48 h) was 10 µg/mL (≈ 29.8 µM) and the “activity against Cercospora beticola” value (Cercospora beticola) was “active”. For the same compound, the MIC ([17]; CBS.50148, 72 h, 72 hours, read-out: minimal inhibitory concentration) was 2.5 µg/mL (≈ 7.45 µM), the MIC ([17]; CBS.50148, 144 h, 144 hours, read-out: minimal inhibitory concentration) was 2.5 µg/mL (≈ 7.45 µM) and the MIC ([17]; CBS.50148, 288 h, 288 hours, read-out: minimal inhibitory concentration) was 5 µg/mL (≈ 14.9 µM). For the same compound, the MIC ([17]; CBS.50148, read-out: Minimal inhibitory concentration inhibiting the growth) was 2.5 µg/mL (≈ 7.45 µM), the minimal inhibitory concentration (Candida albicans CBS.562) was 25 µg/mL (≈ 74.5 µM) and the MIC (Candida albicans CBS.562; Candida albicans, CBS.562, 48 h) was 50 µg/mL (≈ 149 µM). The minimal inhibitory concentration ([18]; 144 hours) was 2.5 µg/mL (≈ 7.45 µM), the minimal inhibitory concentration ([18]; 288 hours) was 2.5 µg/mL (≈ 7.45 µM) and the MIC ([18]; CBS.30338, 144 h, 144 hours) was 5 µg/mL (≈ 14.9 µM). It also gave an MIC ([18]; CBS.30338, 288 h, 288 hours) of 5 µg/mL (≈ 14.9 µM), an MIC ([19]; 72 hours) of 50 µg/mL (≈ 149 µM) and an MIC ([19]; 144 hours) of 50 µg/mL (≈ 149 µM). For the same compound, the MIC ([19]; 288 hours) was 50 µg/mL (≈ 149 µM), the MIC ([20]; CCM.F382, 72 h, 72 hours) was 25 µg/mL (≈ 74.5 µM) and the MIC ([20]; CCM.F382, 144 h, 144 hours) was 25 µg/mL (≈ 74.5 µM). It also gave an MIC ([20]; CCM.F382, 288 h, 288 hours) of 75 µg/mL (≈ 224 µM).
